The test system of data set [1] is T24 human bladder cancer cells. In words: Orthotopic bladder cancer model in rats, continuous gemcitabine perfusion of the bladder. Type of data set: in vivo, Athymic nude rats. The text has this:
After day 11, the bladders were removed and subject to histological analysis.

Data set [2] in a line: Minipig model, local continuous gemcitabine from an intravesical device for one week. It counts as in vivo, minipigs. As to conditions: device removed at day 7; tissue levels estimated from gemcitabine and active metabolite in urine (FIG. 2). How it is done: A minipig model was developed to investigate the effect of administering gemcitabine to the bladder locally and continuously using an intravesicular (intravesical) device. For this study, gemcitabine was continuously administered to minipigs for one week using an intravesicular (intravesical) device. The intravesicular (intravesical) device was removed at day 7. The concentration of gemcitabine and active metabolite was measured in the urine of the minipigs following removal of the device. Based upon the level of gemcitabine and active metabolite in the urine, the therapeutic gemcitabine levels in the bladder tissue were estimated.

A short description of data set [3]: Pilot pharmacokinetic study, 14C-gemcitabine perfused via intra-urinary bladder cannula. It counts as in vivo, male Sprague-Dawley rats. As to conditions: 3.85 mg/mL, 300 μL/hr. On the procedure:
A pilot study performed was using male Sprague-Dawley rats to determine the pharmacokinetics and pharmacodynamics properties of administering gemcitabine locally and continuously to the bladder. Rats were fitted with intra-urinary bladder cannula (IUBC) and radiolabeled ^14C-gemcitabine was perfused for 6 or 24 hours at a rate of 300 μL/hr at a concentration of 3.85 mg/mL of gemcitabine. The concentration of gemcitabine in various tissue layers were measured.

Data set [4] concerns NBT-II rat bladder tumor cells. In words: Syngeneic rat bladder tumor model, immune effects of continuous local gemcitabine. It counts as in vivo, Wistar rats. How it is done: A syngeneic rat model was developed to assess treatment efficacy and immune effects of continuous local administration to the bladder. Wistar rats were cannulated on day 0 and injected with NBT-II rat bladder tumor cells on day 3. Tumors were allowed to grow for 5 days prior to the start of perfusion on day 8. On days 8-13 of the study gemcitabine was perfused at a concentration of 90 μg/ml or 180 μg/ml. The rats were euthanized on day 14. Samples from the tumor, spleen, blood and plasma were collected for histopathology and immunohistochemistry, flow cytometry, and cytokine profiling.
The level of activated CD8+ and CD4+ T cells were also measured in the tumor microenvironment compared to the level of CD+4 and CD8+ regulatory cells.
Plasma TGFβ and IL-10 levels were also measured following delivery of gemcitabine. […] Inhibition of TGFβ is known to impair Treg activation.

Data set [5] can be described thus: Comparison of urine gemcitabine and dFdU between minipig study and human phase IB study. Type of data set: in vivo. As to conditions: for urine concentrations: mini pig study versus human phase IB study (FIG. 10).
The conditions of data set [6]: rat, in vivo.
Procedure: An orthotopic bladder cancer model was developed in rats to allow evaluation of the efficacy of continuous administration of gemcitabine to the bladder on treatment of a human bladder cancer cell line. Athymic nude rats were cannulated on day 0. The rats were injected with fluorescently labeled T24 human bladder cancer cells on day 3. On day 5 of the study, tumors were observable. Gemcitabine perfusion started on day 6 and continued until day 11. Three concentrations of gemcitabine were tested: 90 μg/ml, 180 μg/ml, and 350 μg/ml.
For data set [7] the following is noted: in vivo.
Procedure: The ongoing Phase 1b study, TAR-200-101, is designed to evaluate the safety and tolerability of up to 2 dose cycles of gemcitabine administered intravesicularly at a dose of 225 mg for 7 days separated by a rest period of 14 days using the GemRIS system, over a 28-day period in patients with confirmed muscle-invasive transitional cell carcinoma of the bladder (>/=clinical and pathologic stage pT2a), who are scheduled to undergo radical cystectomy (RC) with concomitant lymphadenectomy.
Gemcitabine Releasing Intravesical System (GemRIS) is placed into the bladder through an inserter on Study Day 0 and is removed on Study Day 7. GemRIS releases gemcitabine gradually during the 7 day indwelling time. A second GemRIS is placed in the bladder on Study Day 21 and is removed on Study Day 28 which is the day of the TURBT. GemRIS is a passive, nonresorbable gemcitabine-releasing intravesicular (intravesical) system whose primary mode of action is the controlled release of gemcitabine into the bladder over a 7 day period.
The primary outcome measures are the number of participants with treatment emergent adverse events (TEAEs) coded with MedDRA and graded for severity with CTCAE v4.0. The secondary outcome measures are the number and percentage of participants who are tolerant of GemRIS indwelling on days 1-7 and 21-28. Plasma and urine levels of dFdC and dFdU are also measured. […] Cmax, plasma dFdU Analysis of Cmax (maximum concentration achieved over time) of diflourodeoxyuridine (dFdU) in plasma. [Time Frame: From Day 0 up to Day 28] • 6. Tmax, plasma dFdU. Analysis of Tmax (Day at which maximum concentration was achieved) of diflourodeoxyuridine (dFdU) in plasma. [Time Frame: From Day 0 up to Day 28] • 7. Cavg, plasma dFdU. Analysis of Descriptive statistics (e.g. sample size, mean and median, quartiles, minimum and maximum and box plots) of the concentration of diflourodeoxyuridine (dFdU) in plasma. [Time Frame: From Day 0 up to Day 28] • 8. Cmax, plasma dFdC. Analysis of Cmax (maximum concentration achieved over time) of gemcitabine (deoxydifluorocytidine hydrochloride dFdC) in plasma. [Time Frame: From Day 0 up to Day 28] • 9. Tmax, plasma dFdC. Analysis of Tmax (Day at which maximum concentration was achieved) of gemcitabine (deoxydifluorocytidine hydrochloride—dFdC) in plasma [Time Frame: From Day 0 up to Day 28] • 10. Cavg, plasma dFdC. Analysis of Descriptive statistics (e.g. sample size, mean and median, quartiles, minimum and maximum and box plots) of the concentration of gemcitabine (deoxydifluorocytidine hydrochloride—dFdC) in plasma [Time Frame: From Day 0 up to Day 28]. • 11. Cmax, urine dFdU (Arm 1 only). Analysis of Cmax (maximum concentration achieved over time) of diflourodeoxyuridine (dFdU) in urine. [Time Frame: From Day 0 up to Day 28] • 12. Tmax, urine dFdU (Arm 1 only). Analysis of Cmax (maximum concentration achieved over time) of diflourodeoxyuridine (dFdU) in urine. [Time Frame: From Day 0 up to Day 28] • 13. Tmax, urine dFdU (Arm 1 only). Analysis of Cmax (maximum concentration achieved over time) of diflourodeoxyuridine (dFdU) in urine. [Time Frame: From Day 0 up to Day 28] • 14. Cavg, urine dFdU (Arm 1 only). Analysis of Descriptive statistics (e.g. sample size, mean and median, quartiles, minimum and maximum and box plots) of the concentration of diflourodeoxyuridine (dFdU) in urine. [Time Frame: From Day 0 up to Day 28] • 15. Cmax, urine dFdC (Arm 1 only).

Where only a bound is given, the exact number is not on record here.

Turning to `Nc1ccn([C@@H]2O[C@H](CO)[C@@H](O)C2(F)F)c(=O)n1` [gemcitabine, 2′,2′-difluorodeoxycytidine], the “tumor volume compared to untreated control (tumor size as net average intensity, FIG. 1)” value in data set [1] (90 μg/ml gemcitabine, continuous perfusion day 6 to day 11, five day study period) was “significant reduction in tumor volume”. Further, in data set [1] (90 μg/ml, 180 μg/ml and 350 μg/ml gemcitabine perfusion), the “anti-tumor effect with increasing concentration” value was “increased with administration of increasing concentrations”. Further, in data set [2], the “therapeutically relevant gemcitabine levels in bladder tissue after device removal” value is listed as “persisted well after the device was removed”. Also, the “distribution of radiolabel among bladder tissue layers” value in data set [3] (perfused for 6 or 24 hours) is “most concentrated in the adventitia and epithelium, followed by muscle and lamina propria”. Also, in data set [3] (perfused for 6 or 24 hours (FIG. 3)), the “penetration into bladder tissue layers” value is listed as “able to penetrate into deeper bladder tissues”. The “plasma TGFβ level compared to control animals” value in data set [4] (180 μg/mL gemcitabine (FIG. 6)) is “decreased”. Besides, the “plasma IL-10 level” value in data set [4] (180 μg/mL gemcitabine, versus untreated control rats (FIG. 7)) is “increased”. Also, in data set [4] (gemcitabine perfusion days 8-13, versus untreated control rats (FIG. 5)), the “level of activated CD4+ and CD8+ cells in the spleen” value was “increased”. The “ratio of regulatory T cells to activated CD4+ and CD8+ T cells in the tumor microenvironment” value in data set [4] (perfusion 90 or 180 μg/mL, days 8-13 (FIG. 4)) was “decreased”. In addition, the urine concentrations result in data set [5] is reported as “comparable”. Besides, the “levels of gemcitabine excreted in the urine” value in data set [5] (minipig study versus human phase IB trial (FIG. 9)) is listed as “comparable”. In addition, in data set [6], the hematuria entry is “observed in all perfusion animals”; the “urine and blood parameters” value is “No major significant differences”. In data set [7] (human), the “plasma concentrations of gemcitabine” value was less than 100 ng/mL. Moreover, in data set [7], the urine levels entry is listed as “measurable”.
Consider `O=c1ccn(C2OC(CO)C(O)C2(F)F)c(=O)[nH]1` (stereo not shown) [dFdU, diflourodeoxyuridine], for which the urine concentrations entry in data set [5] is listed as “comparable”. In data set [7], the “plasma concentrations of dFdU (quantifiable samples)” value was 104 to 284 ng/mL, the “plasma samples with low but quantifiable dFdU” value was 10 of 55 and the urine levels result is reported as “measurable”.

Values taken from patent US20260248717A1, “METHOD OF TREATING LOWER TRACT UROTHELIAL CANCER” (TARIS Biomedical LLC, priority 2016, published 2026).
